According to the supplement of paper PMC10307832:

Assays:
Assay in all cases: relative viability (nuclei count vs DMSO), 5 days (fraction); higher = more cells survive
[1] = compound: CC(C)(C)c1nc(-c2cccc(NS(=O)(=O)c3c(F)cccc3F)c2F)c(-c2ccnc(N)n2)s1 [Dabrafenib] + C[C@]1(O)C[C@@H](c2nc(-c3ccc4ccc(-c5ccccc5)nc4c3)c3c(N)nccn32)C1 [Linsitinib] (partner 1 µM)
Procedure, shortened: (§1)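 Medians of duplicate plates are given as relative viability. That measure is the nuclei count in treated wells divided by the count in vehicle wells. Counts were taken on 4× images of lung cancer cell lines in 1536-well plates, 5 days after pin-tool dosing the day after seeding with one drug alone or a fixed anchor-drug dose plus five library-drug doses (not always all listed) in √10 steps.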

[2] = compound: CC(C)(C)c1nc(-c2cccc(NS(=O)(=O)c3c(F)cccc3F)c2F)c(-c2ccnc(N)n2)s1 [Dabrafenib] + C[C@@H](Oc1cc(-c2cnn(C3CCNCC3)c2)cnc1N)c1c(Cl)ccc(F)c1Cl [Crizotinib] (partner 1 µM)
Procedure, shortened: as §1

[3] = compound: CC(C)(C)c1nc(-c2cccc(NS(=O)(=O)c3c(F)cccc3F)c2F)c(-c2ccnc(N)n2)s1 [Dabrafenib] + COc1cc2c(Oc3ccc(NC(=O)C4(C(=O)Nc5ccc(F)cc5)CC4)cc3F)ccnc2cc1OCCCN1CCOCC1 [Foretinib] (partner 0.25 µM)
Procedure, shortened: as §1

[4] = compound: NC(=O)c1ccc(N(C(N)=O)c2c(F)cccc2F)nc1-c1ccc(F)cc1F [VX-702] + CS(=O)(=O)N1CCN(Cc2cc3nc(-c4cccc5[nH]ncc45)nc(N4CCOCC4)c3s2)CC1 [Pictilisib] (partner 1 µM)
Procedure, shortened: as §1

Row | Cell Line | relative viability ([1]; first compound 0.003 µM) | relative viability ([1]; first compound 0.009487 µM) | relative viability ([1]; first compound 0.03 µM) | relative viability ([1]; first compound 0.09487 µM) | relative viability ([1]; first compound 0.3 µM) | relative viability ([2]; first compound 0.003 µM) | relative viability ([2]; first compound 0.009487 µM) | relative viability ([2]; first compound 0.03 µM) | relative viability ([2]; first compound 0.09487 µM) | relative viability ([2]; first compound 0.3 µM) | relative viability ([3]; first compound 0.003 µM) | relative viability ([3]; first compound 0.009487 µM) | relative viability ([3]; first compound 0.03 µM) | relative viability ([3]; first compound 0.09487 µM) | relative viability ([3]; first compound 0.3 µM) | relative viability ([4]; first compound 0.02 µM) | relative viability ([4]; first compound 0.2 µM) | relative viability ([4]; first compound 0.6325 µM) | relative viability ([4]; first compound 2 µM)
1 | NCI-H1755 | 0.917 | 0.984 | 0.887 | 0.975 | 0.99 | 0.896 | 0.89 | 0.648 | 0.824 | 0.884 | 0.879 | 0.894 | 0.767 | 0.876 | 0.911 | 0.395 | 0.389 | 0.409 | 0.486
2 | NCI-H1915 | 1.11 | 1.14 | 1.08 | 1.02 | 0.964 | 0.994 | 0.893 | 0.721 | 0.752 | 0.731 | 1.2 | 1.08 | 1.09 | 0.87 | 0.949 | 1.14 | 0.848 | 0.949 | 1.1
3 | NCI-H1944 | 1.17 | 1.28 | 1.06 | 1.18 | 1.14 | 1.13 | 1.09 | 1.05 | 0.971 | 1.03 | 0.832 | 0.887 | 0.948 | 0.827 | 0.85 | 0.362 | 0.333 | 0.326 | 0.284
4 | NCI-H1975 | 1.06 | 1.04 | 0.889 | 0.995 | 0.905 | 0.967 | 0.968 | 0.881 | 0.938 | 0.87 | 0.965 | 0.907 | 0.922 | 0.849 | 0.957 | 0.27 | 0.283 | 0.384 | 0.316
5 | NCI-H1993 | 0.633 | 0.772 | 0.658 | 0.835 | 0.721 | 0.86 | 0.946 | 0.826 | 0.929 | 1.06 | 0.762 | 0.852 | 0.64 | 0.71 | 0.901 | 0.871 | 0.808 | 0.757 | 0.834
6 | NCI-H2009 | 1.16 | 1.09 | 1.08 | 1.01 | 0.861 | 0.973 | 1.01 | 1.02 | 0.697 | 0.662 | 1.21 | 1.18 | 1.24 | 0.995 | 0.911 | 0.866 | 0.739 | 0.789 | 1.05
7 | NCI-H2023 | 0.639 | 0.667 | 0.595 | 0.715 | 0.792 | 0.745 | 0.651 | 0.651 | 0.876 | 0.802 | 0.866 | 0.922 | 0.796 | 0.877 | 1.02 | 0.238 | 0.228 | 0.192 | 0.221
8 | NCI-H2085 | 0.827 | 0.857 | 0.944 | 0.908 | 0.845 | 0.97 | 0.881 | 0.838 | 0.919 | 0.873 | 0.984 | 0.975 | 0.981 | 0.899 | 1.08 | 0.429 | 0.47 | 0.466 | 0.4
